# Data published in US10287267B2, “Isoquinolin-3-yl carboxamides and preparation and use thereof” (Samumed, LLC, priority 2016, dated 2019).
# Legend:
# [1] = test system: α-smooth muscle actin (αSMA) positive LL29 cells; experiment: Inhibition of fibrotic process: αSMA in TGF-β1 treated primary human fibroblasts from IPF patients; assay type: cell-based; conditions: Homo sapiens, Fibroblast; for EC50: 96 h, Table 8, LL29 fibroblasts from IPF patients, TGF-β1 20 ng/mL, 4 days, dose-response 10 μM to 0.94 nM; for inhibition at 10 µM: read-out: percent value in parentheses beside EC50 >10 μM;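 as to all read-outs here: controls were TGF-β1 stimulated wells with DMSO vehicle (positive) and cells given DMSO alone (negative), cultured in F12 medium with 1% fetal bovine serum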
# [2] = target: recombinant DYRK1A kinase (Homo sapiens (Human), UniProt Q13627); experiment: DYRK1A kinase assay (Ser/Thr 18 peptide Z-lyte FRET); assay type: biochemical; conditions: 30 μM ATP, 1 h room temperature;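 also: Read-out is the coumarin to fluorescein emission ratio, referenced to unphosphorylated (0%) and phosphorylated (100%) Ser/Thr 18 peptide controls, values from dose-response curves by non-linear regression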
# [3] = test system: Wnt pathway (Sp5-Luc reporter, TCF/LEF binding sites) in SW480 colon carcinoma cells; experiment: Screening assay for Wnt activity: Sp5-Luc reporter gene assay; assay type: cell-based, human; conditions: Homo sapiens; for inhibition at 10 µM: SW480, read-out: percent inhibition at 10 μM; for EC50: Sp5-Luc reporter, SW480 cells, 36 to 48 hours;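 as to all read-outs here: firefly luciferase luminescence read in stably transduced SW480 cells carrying the Sp5 promoter reporter with eight TCF/LEF sites, compounds given in 0.1% DMSO final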
# Procedure: The screening assay for Wnt activity is described as follows.
# Following incubation, 15 μl of BriteLite Plus luminescence reagent (Perkin Elmer) was added to each well of the 384-well assay plates. The plates were placed on an orbital shaker for 2 min and then luminescence was quantified using the Envision (Perkin Elmer) plate reader.
# [4] = test system: SW480 colon carcinoma cells; experiment: Cell viability assay (CellTiter-Glo); assay type: cell-based, human; conditions: Homo sapiens; for EC50: 96 h, SW480 cells, CellTiter-Glo, four days incubation; for inhibition at 10 µM: SW480, read-out: percent inhibition at 10 μM
# IL-6 = IL-6 inhibition in LPS-stimulated human peripheral blood mononuclear cells (HTRF); assay type: cell-based; conditions: Homo sapiens, PBMC; for EC50: Table 9, huPBMCs, LPS 50 ng/mL, 22 hours, dose-response starting from 10 μM; for inhibition at 10 µM: read-out: percent value in parentheses beside EC50 >10 μM;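 as to all read-outs here: IL-6 detected by HTRF with an XL665- and Cryptate-labelled anti-IL-6 antibody pair, samples run in duplicate, EC50 obtained from a four-parameter Levenberg-Marquardt curve fit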
# Procedure: After 22 hour incubation, a mixture of anti-IL6 XL665 and anti-IL-6 Cryptate diluted in reconstitution buffer (Catalog #62IL6PEC, Cisbio Inc., Bedford, Mass.) was added to each well. […] All samples were processed in duplicate. […] EC50 was determined using software generated by Dotmatics Limited (Windhill Bishops Stortford Herts, UK) using the Levenberg-Marquardt 4 parameter fitting procedure with finite different gradients.
# recombinant GSK3β kinase = recombinant GSK3β kinase (Homo sapiens (Human), UniProt P49841); experiment: GSK3β kinase assay (Ser/Thr 09 peptide Z-lyte FRET); assay type: biochemical; conditions: 46 μM ATP, 1 h room temperature;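 also: kinase activity read as coumarin to fluorescein emission ratio, 11-point threefold dilutions from 10 µM to 0.0003 µM in duplicate, unphosphorylated and phosphorylated peptide as 0% and 100% controls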
# [5] = test system: Tau phosphorylation at Ser396 (pSer396); experiment: Tau phosphorylation assay (pSer396 ELISA / western blot) in SH-SY5Y cells; assay type: cell-based, human; conditions: Homo sapiens; SH-SY5Y cells, overnight (16-18 h) exposure; read-out: pSer396 Tau EC50;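 also: EC50 for reduction of Tau pSer396 in lysed cells, measured by colorimetric ELISA or chemiluminescent western blot, both using the same pSer396 antibody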
# Chain of recombinant GSK3β kinase (P49841 whole entry): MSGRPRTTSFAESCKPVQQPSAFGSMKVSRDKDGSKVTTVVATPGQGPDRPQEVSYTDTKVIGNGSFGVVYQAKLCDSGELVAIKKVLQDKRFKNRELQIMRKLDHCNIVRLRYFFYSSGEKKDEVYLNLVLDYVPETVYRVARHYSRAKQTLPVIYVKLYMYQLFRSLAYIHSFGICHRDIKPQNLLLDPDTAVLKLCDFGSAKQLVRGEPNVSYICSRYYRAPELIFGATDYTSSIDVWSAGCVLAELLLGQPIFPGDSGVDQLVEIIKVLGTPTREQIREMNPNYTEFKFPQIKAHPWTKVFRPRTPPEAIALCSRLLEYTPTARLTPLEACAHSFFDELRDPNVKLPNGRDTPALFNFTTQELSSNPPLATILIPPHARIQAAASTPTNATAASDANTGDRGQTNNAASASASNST
SMILES,EC50 [1] [nM],inhibition at 10 µM [1] [%],EC50 [2] [nM],inhibition at 10 µM [3] [%],EC50 [3] [nM],EC50 [4] [nM],EC50 (IL-6) [nM],EC50 (recombinant GSK3β kinase) [nM],EC50 [5] [nM],inhibition at 10 µM (IL-6) [%],inhibition at 10 µM [4] [%]
"CN(CC(=O)Nc1cc2cc(-c3cnco3)ccc2cn1)C1CCC1 [Compound 980, 2-(Cyclobutyl(methyl)amino)-N-(6-(oxazol-5-yl)isoquinolin-3-yl)acetamide]",> 10000,40.3,19.1,40.5,> 10000,5740,3680,389,2100,,
"O=C(CN1CCCC1)Nc1cc2cc(-c3cnn4c3CN(CCF)CC4)ccc2cn1 [Compound 999, N-(6-(5-(2-Fluoroethyl)-4,5,6,7-tetrahydropyrazolo[1,5-a]pyrazin-3-yl)isoquinolin-3-yl)-2-(pyrrolidin-1-yl)acetamide]",779,,20.9,,3100,7510,> 10000,86,659,30.3,
"CC(C)CN1CCC(C(=O)Nc2cc3cc(-c4cnn(C)c4CN4CCCCC4)ccc3cn2)CC1 [Compound 822, 1-isobutyl-N-(6-(1-methyl-5-(piperidin-1-ylmethyl)-1H-pyrazol-4-yl)isoquinolin-3-yl)piperidine-4-carboxamide]",212,,4.1,,517,708,3260,9,247,,
"Cc1nnc(-c2ccc3cnc(NC(=O)CN4CCCC4)cc3c2)s1 [Compound 932, N-(6-(5-Methyl-1,3,4-thiadiazol-2-yl)isoquinolin-3-yl)-2-(pyrrolidin-1-yl) acetamide]",594,,16.9,,946,5450,> 10000,14,357,7.5,
"Cc1ncc(-c2ccc3cnc(NC(=O)C4CCC(F)(F)CC4)cc3c2)n1C [Compound 121, N-(6-(1,2-Dimethyl-1H-imidazol-5-yl)isoquinolin-3-yl)-4,4-difluorocyclohexanecarboxamide]",1080,,3.4,,3500,4310,3650,53,1030,,
"CC(C(=O)Nc1cc2cc(-c3cnn(C)c3)ccc2cn1)N1CCCC1 (centres unmarked) [Compound 288, N-(6-(1-Methyl-1H-pyrazol-4-yl)isoquinolin-3-yl)-2-(pyrrolidin-1-yl) propanamide]",532,,27.3,,1200,2660,1240,20,159,,
"[2H]C([2H])([2H])n1cc(-c2ccc3cnc(NC(=O)CN4CCCC4)cc3c2)cn1 [Compound 305, N-(6-(1-(Methyl-d3)-1H-pyrazol-4-yl)isoquinolin-3-yl)-2-(pyrrolidin-1-yl) acetamide]",5510,,8.2,,1940,1650,1140,51,247,,
"CN1CCOC(CC(=O)Nc2cc3cc(-c4cnn(C)c4)ccc3cn2)C1 (centres unmarked) [Compound 350, N-(6-(1-Methyl-1H-pyrazol-4-yl)isoquinolin-3-yl)-2-(4-methylmorpholin-2-yl)acetamide]",100,,6.2,,1000,1080,578,33,417,,
"CCN1CCN(CC(=O)Nc2cc3cc(-c4cnn(C)c4)ccc3cn2)CC1 [Compound 351, 2-(4-Ethylpiperazin-1-yl)-N-(6-(1-methyl-1H-pyrazol-4-yl)isoquinolin-3-yl) acetamide]",> 10000,38.8,13.6,,2520,6880,3010,130,846,,
"Cc1nnc(-c2ccc3cnc(NC(=O)C4CCN(CCC(F)(F)F)CC4)cc3c2)n1C [Compound 279, N-(6-(4,5-Dimethyl-4H-1,2,4-triazol-3-yl)isoquinolin-3-yl)-1-(3,3,3-trifluoropropyl)piperidine-4-carboxamide]",1200,,7.8,,5650,> 10000,> 10000,14,498,14.2,52.4
"Cn1cc(-c2ccc3cnc(NC(=O)C4CCN(C(=O)CN5CCCC5)CC4)cc3c2)nn1 [Compound 475, N-(6-(1-Methyl-1H-1,2,3-triazol-4-yl)isoquinolin-3-yl)-1-(2-(pyrrolidin-1-yl)acetyl)piperidine-4-carboxamide]",140,,3.2,,701,1060,2560,23,1800,,
"Cn1cc(-c2cc3cc(NC(=O)C4CCN(CCF)CC4)ncc3cc2F)cn1 [Compound 371, N-(7-Fluoro-6-(1-methyl-1H-pyrazol-4-yl)isoquinolin-3-yl)-1-(2-fluoroethyl) piperidine-4-carboxamide]",394,,2.4,,643,1060,1210,23,581,,
"CC(C)CN1CCC(C(=O)Nc2cc3cc(-c4cnn(C)c4)cc(F)c3cn2)CC1 [Compound 367, N-(8-Fluoro-6-(1-methyl-1H-pyrazol-4-yl)isoquinolin-3-yl)-1-isobutylpiperidine-4-carboxamide]",211,,11.1,,524,8240,1150,56,258,,
"Cc1ncc(-c2ccc3cnc(NC(=O)CN4CCN(C)CC4)cc3c2)o1 [Compound 1019, N-(6-(2-Methyloxazol-5-yl)isoquinolin-3-yl)-2-(4-methylpiperazin-1-yl) acetamide]",6530,,28.9,,3800,9380,8970,158,1500,,
"CC(=O)N1CCC(C(=O)Nc2cc3cc(-c4cnn(C)c4)ccc3cn2)CC1 [Compound 329, 1-Acetyl-N-(6-(1-methyl-1H-pyrazol-4-yl)isoquinolin-3-yl)piperidine-4-carboxamide]",212,,2.7,,1170,4120,1160,29,524,,
"O=C(Nc1cc2cc(-c3cnc4n3CCNC4)ccc2cn1)[C@@H]1CCCNC1 [Compound 988, (R)—N-(6-(5,6,7,8-Tetrahydroimidazo[1,2-a]pyrazin-3-yl)isoquinolin-3-yl) piperidine-3-carboxamide]",> 10000,46.5,24.9,11.1,> 10000,> 10000,> 10000,1090,> 10000,8.8,18
"CC(C(=O)Nc1cc2cc(-c3cnn(C)c3)ccc2cn1)N1CCCCC1 (centres unmarked) [Compound 314, N-(6-(1-Methyl-1H-pyrazol-4-yl)isoquinolin-3-yl)-2-(piperidin-1-yl) propanamide]",45,,22.1,,859,1200,1270,12,128,,
"Cn1cc(-c2ccc3cnc(NC(=O)C4CCN(CC5(C(F)(F)F)CC5)CC4)cc3c2)nn1 [Compound 470, N-(6-(1-Methyl-1H-1,2,3-triazol-4-yl)isoquinolin-3-yl)-1-((1-(trifluoromethyl)cyclopropyl)methyl)piperidine-4-carboxamide]",387,,2.7,,1180,4190,3550,4,95,,
"Cn1cc(-c2ccc3cnc(NC(=O)CN4CCN(CCF)CC4)cc3c2)cn1 [Compound 354, 2-(4-(2-Fluoroethyl)piperazin-1-yl)-N-(6-(1-methyl-1H-pyrazol-4-yl)isoquinolin-3-yl)acetamide]",346,,4.4,,2320,4990,7000,37,1200,,
"CC(C)CN1CCC(F)(C(=O)Nc2cc3cc(-c4cnn5c4CN(CCF)CC5)ccc3cn2)CC1 [Compound 1023, 4-Fluoro-N-(6-(5-(2-fluoroethyl)-4,5,6,7-tetrahydropyrazolo[1,5-a]pyrazin-3-yl)isoquinolin-3-yl)-1-isobutylpiperidine-4-carboxamide]",4670,,8.7,38.2,> 10000,> 10000,> 10000,838,1800,20.7,39.9
"CC(C(=O)Nc1cc2cc(-c3cncn3C)ccc2cn1)N1CCCC1 (centres unmarked) [Compound 579, N-(6-(1-Methyl-1H-imidazol-5-yl)isoquinolin-3-yl)-2-(pyrrolidin-1-yl) propanamide]",167,,25,,899,954,1020,48,62,,
